ChEMBL document CHEMBL1201862, “PubChem BioAssay data set” (2004)
The source made the active and inactive calls.

Assays:
Cytochrome P450 2C19 = Cytochrome P450 2C19 (Homo sapiens, UniProt P33261); assay: Cytochrome panel assay with activity outcomes. Panel member name: p450-cyp2c19 Compounds with AC50 equal or less than 10 uM are considered active; assay type: functional
Cytochrome P450 2D6 = Cytochrome P450 2D6 (Homo sapiens, UniProt P10635);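 note: CYP2D6 member of a cytochrome P450 panel assay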
Sequence of Cytochrome P450 2D6 (P10635 whole entry): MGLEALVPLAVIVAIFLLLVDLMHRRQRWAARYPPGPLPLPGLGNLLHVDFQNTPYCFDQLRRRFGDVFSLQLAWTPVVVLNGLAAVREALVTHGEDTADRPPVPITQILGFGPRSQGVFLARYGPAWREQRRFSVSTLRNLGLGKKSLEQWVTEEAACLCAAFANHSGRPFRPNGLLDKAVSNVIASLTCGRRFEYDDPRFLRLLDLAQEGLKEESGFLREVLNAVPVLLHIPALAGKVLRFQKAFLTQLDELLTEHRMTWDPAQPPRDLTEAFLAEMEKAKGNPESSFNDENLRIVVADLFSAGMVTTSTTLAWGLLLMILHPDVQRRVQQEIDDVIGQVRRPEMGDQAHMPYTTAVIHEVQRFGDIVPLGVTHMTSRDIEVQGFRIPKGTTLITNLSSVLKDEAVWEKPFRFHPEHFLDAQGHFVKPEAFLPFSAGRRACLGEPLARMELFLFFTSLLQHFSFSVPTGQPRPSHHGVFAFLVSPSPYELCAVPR

[1] = biological target: Kappa-type opioid receptor (Homo sapiens, UniProt P41145); assay: SAR analysis of small molecule agonists of the kappa opioid receptor via a luminescent beta-arrestin assay - Set 3. [Related pubchem assays (depositor defined):AID1777, AID1785, AID1786, AID1966, AID2133, AID2136, AID2284, AID2500]; assay type: functional
Sequence of Kappa-type opioid receptor (P41145 whole entry): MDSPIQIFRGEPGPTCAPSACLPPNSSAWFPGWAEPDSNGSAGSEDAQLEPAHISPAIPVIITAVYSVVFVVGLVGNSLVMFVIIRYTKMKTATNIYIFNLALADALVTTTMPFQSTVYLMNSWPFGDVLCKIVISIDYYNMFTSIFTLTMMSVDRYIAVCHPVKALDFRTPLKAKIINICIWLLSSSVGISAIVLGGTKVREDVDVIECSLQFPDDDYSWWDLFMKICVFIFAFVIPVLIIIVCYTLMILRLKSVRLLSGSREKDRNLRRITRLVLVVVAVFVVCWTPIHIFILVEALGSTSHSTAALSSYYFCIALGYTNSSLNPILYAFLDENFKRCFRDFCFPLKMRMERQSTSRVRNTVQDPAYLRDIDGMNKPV

HEK293 [2] = assay: NOD1 signaling inhibitors, primary screen, cell-based, luminescence, uHTS (AID 1578); assay type: functional; conditions: Homo sapiens
[3] = tested on: Streptococcus sp. 'group A'; assay: growth inhibition of control SK(-) GAS strain, dose response, counter-screen for streptokinase expression inhibitor project, luminescence, kanamycin, BacTiterGlo, confirmation (AID 1900); assay type: functional, organism-based
HEK293 [4] = assay: cells; assay type: functional, cell-based; conditions: Homo sapiens
Streptokinase A = biological target: T1, Streptokinase A (Streptococcus pyogenes serotype M1, UniProt P10520); assay: S. pyogenes streptokinase expression inhibitors, potency, dose response, plasminogen activation absorbance, OD405 (AID 1914); assay type: functional, Streptococcus pyogenes M1 GAS;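 note: secreted streptokinase activity via plasminogen activation per viability signal from cell pellet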
T1 sequence (P10520 whole entry): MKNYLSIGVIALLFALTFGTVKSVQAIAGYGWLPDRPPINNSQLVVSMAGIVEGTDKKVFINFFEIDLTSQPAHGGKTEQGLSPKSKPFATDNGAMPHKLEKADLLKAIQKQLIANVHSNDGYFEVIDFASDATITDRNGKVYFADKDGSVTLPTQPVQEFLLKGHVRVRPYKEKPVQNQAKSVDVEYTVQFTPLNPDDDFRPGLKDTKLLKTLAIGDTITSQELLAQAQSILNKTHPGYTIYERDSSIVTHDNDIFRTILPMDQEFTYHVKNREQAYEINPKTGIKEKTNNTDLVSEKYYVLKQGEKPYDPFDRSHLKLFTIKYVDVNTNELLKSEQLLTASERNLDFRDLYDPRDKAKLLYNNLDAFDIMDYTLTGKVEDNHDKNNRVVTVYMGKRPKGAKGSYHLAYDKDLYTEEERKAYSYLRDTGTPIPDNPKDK

HEK293 [5] = assay: cells; assay type: functional, cell-based; conditions: Homo sapiens; remark: listed apart in the source
[6] = biological target: Nucleotide-binding oligomerization domain-containing protein 2 (Homo sapiens, UniProt Q9HC29); assay: NOD2 signaling inhibitors, cell-based, luminescence, uHTS, HEK293 (AID 1566); assay type: functional
Sequence of Nucleotide-binding oligomerization domain-containing protein 2 (Q9HC29 whole entry, the tested form may be a part): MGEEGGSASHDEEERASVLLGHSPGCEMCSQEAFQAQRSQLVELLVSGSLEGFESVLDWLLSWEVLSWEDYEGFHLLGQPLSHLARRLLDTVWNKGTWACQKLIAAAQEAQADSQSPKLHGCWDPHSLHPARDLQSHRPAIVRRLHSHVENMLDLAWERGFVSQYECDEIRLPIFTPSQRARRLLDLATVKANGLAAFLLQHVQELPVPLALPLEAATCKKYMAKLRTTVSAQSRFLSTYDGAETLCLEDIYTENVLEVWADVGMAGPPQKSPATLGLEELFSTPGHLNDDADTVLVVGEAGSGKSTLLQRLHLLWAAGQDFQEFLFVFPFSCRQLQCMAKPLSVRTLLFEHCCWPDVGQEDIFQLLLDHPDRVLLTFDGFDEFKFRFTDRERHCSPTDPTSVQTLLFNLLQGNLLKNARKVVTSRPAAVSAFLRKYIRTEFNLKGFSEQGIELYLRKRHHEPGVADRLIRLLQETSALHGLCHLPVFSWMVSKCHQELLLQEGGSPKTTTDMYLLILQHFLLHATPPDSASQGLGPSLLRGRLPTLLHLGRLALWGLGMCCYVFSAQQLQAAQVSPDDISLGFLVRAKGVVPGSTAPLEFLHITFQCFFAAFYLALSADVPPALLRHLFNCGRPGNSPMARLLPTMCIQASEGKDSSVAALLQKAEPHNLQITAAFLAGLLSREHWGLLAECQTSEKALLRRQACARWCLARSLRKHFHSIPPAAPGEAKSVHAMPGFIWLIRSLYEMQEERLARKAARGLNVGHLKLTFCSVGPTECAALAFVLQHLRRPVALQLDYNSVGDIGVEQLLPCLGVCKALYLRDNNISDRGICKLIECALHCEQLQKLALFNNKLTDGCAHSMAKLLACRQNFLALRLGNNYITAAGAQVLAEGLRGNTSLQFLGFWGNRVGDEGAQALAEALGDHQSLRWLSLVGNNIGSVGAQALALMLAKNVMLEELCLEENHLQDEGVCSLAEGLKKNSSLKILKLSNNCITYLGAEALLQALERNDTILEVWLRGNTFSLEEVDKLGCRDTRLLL

HEK293 [7] = assay: NOD2 signaling inhibitors in MDP-stimulated cells, cell-based, uHTS, luminescence (AID 2001); assay type: functional; conditions: Homo sapiens
HEK293 [8] = assay: cells; assay type: functional, cell-based; conditions: Homo sapiens; remark: listed apart in the source
Streptococcus = assay: Group A Streptococcus viability loss, dose response, counter-screen for streptokinase expression inhibitor project, luminescence, BacTiterGlo (AID 1915); assay type: functional, organism-based;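 note: potency for reduction of bacterial viability or growth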
[9] = Luminescence Cell-Based Dose Retest to Confirm Inhibitors of Cancer Stem Cells. [Related pubchem assays (depositor defined):AID2717, AID2721]; assay type: functional; conditions: Homo sapiens
[10] = biological target: Disintegrin and metalloproteinase domain-containing protein 17 (Homo sapiens, UniProt P78536); assay: ADAM17 protease inhibitors, dose response, counter-screen for ADAM10 exosite inhibitor project, biochemical, quenched FRET substrate (AID 743253)
Sequence of Disintegrin and metalloproteinase domain-containing protein 17 (P78536 whole entry, the tested form may be a part): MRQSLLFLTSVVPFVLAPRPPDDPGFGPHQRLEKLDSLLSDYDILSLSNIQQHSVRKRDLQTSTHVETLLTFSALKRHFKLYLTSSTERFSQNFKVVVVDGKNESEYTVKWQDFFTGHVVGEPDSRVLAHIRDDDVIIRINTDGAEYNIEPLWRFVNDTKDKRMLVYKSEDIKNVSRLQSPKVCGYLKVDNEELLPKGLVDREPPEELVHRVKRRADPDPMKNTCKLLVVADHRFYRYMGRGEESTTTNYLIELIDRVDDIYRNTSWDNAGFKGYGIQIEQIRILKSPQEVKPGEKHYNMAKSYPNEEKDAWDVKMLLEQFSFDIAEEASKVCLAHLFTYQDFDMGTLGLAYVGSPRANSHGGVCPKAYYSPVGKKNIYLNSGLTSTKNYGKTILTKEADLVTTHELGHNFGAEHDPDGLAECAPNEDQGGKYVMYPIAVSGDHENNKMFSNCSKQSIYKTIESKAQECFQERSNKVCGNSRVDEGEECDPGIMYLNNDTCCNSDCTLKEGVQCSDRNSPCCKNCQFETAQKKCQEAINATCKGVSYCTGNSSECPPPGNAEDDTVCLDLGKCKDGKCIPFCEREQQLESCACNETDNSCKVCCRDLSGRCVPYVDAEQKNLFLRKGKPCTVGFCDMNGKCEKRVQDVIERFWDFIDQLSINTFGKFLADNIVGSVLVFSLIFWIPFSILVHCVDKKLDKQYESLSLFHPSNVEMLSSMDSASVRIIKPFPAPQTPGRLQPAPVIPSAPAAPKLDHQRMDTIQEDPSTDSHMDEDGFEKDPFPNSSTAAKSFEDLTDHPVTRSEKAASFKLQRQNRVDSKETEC

Cytochrome P450 3A4 = Cytochrome P450 3A4 (Homo sapiens, UniProt P08684);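 note: CYP3A4 tested as one member of a cytochrome P450 panel screen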
Sequence of Cytochrome P450 3A4 (P08684 whole entry): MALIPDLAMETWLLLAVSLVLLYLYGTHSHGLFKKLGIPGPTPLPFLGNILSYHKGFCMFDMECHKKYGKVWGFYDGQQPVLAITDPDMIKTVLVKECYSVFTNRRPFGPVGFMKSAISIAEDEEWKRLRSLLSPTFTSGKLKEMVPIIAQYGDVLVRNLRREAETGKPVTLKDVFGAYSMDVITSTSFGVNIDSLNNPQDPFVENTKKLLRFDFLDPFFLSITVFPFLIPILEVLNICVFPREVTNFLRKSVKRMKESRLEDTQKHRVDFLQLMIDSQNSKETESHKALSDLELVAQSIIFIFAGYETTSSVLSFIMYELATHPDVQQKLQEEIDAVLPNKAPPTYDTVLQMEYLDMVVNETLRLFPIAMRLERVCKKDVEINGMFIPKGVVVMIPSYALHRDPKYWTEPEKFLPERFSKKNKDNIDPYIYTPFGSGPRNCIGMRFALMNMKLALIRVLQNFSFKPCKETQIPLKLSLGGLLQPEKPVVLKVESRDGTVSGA

[11] = insulin promoter down-regulators in MIN6 cells, imaging, high-content screening, mouse beta cells (AID 1628); assay type: functional
[12] = cytotoxicity in MIN6 insulinoma cells, dose response, cytotoxicity control, cell-based, mouse insulinoma (AID 2122); assay type: functional;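 note: confirmatory high-throughput counterscreen run to flag cytotoxic compounds; mouse MIN-6 beta cells carrying an insulin promoter eGFP reporter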
Cytochrome P450 2C9 = Cytochrome P450 2C9 (Homo sapiens, UniProt P11712)
Sequence of Cytochrome P450 2C9 (P11712 whole entry): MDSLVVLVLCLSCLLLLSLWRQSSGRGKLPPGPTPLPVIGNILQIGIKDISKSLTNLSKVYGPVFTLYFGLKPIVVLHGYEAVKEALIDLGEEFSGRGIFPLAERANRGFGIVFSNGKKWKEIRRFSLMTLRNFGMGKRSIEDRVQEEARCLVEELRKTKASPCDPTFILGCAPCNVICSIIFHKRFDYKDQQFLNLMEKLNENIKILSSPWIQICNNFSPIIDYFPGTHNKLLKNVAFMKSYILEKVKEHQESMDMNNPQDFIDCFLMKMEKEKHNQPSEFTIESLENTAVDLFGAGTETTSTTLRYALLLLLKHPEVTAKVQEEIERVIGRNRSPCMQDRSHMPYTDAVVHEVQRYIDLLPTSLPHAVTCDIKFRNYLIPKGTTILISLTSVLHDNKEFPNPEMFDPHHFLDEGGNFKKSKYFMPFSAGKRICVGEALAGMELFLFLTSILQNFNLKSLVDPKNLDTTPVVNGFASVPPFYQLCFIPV

Sequence of Cytochrome P450 2C19 (P33261 whole entry): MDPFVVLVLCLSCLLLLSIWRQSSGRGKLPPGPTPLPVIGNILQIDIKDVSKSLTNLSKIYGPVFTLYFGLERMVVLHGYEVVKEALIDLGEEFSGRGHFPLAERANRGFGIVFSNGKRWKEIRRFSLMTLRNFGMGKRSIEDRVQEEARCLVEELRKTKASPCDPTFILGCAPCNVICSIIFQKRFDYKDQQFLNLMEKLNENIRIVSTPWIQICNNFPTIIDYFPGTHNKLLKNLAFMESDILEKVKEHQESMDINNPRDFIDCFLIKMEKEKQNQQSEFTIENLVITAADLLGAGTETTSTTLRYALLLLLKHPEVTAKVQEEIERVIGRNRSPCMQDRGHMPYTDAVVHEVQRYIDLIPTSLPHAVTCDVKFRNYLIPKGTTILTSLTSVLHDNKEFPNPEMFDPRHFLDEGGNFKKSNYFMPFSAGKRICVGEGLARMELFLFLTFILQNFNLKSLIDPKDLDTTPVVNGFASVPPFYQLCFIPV

In the case of Cc1ccc(NC(=O)NNC(=O)C2CC(c3cccnc3)=NO2)cc1 (centres undefined), the AC50 (Cytochrome P450 2C19) is reported as “inconclusive” and the AC50 (Cytochrome P450 2D6) is reported as “inconclusive”.

For Clc1ccc(CSc2nnc(-c3ccccn3)n2Cc2ccccc2Cl)cc1Cl, the EC50 [1] was 11.8 µM (inactive).

For COc1ccc(-c2c[nH]nc2-c2ccc(OCc3ccccc3)cc2O)cc1, the EC50 (HEK293 [2]) was 12.2 µM (active), the EC50 [3] was 2.68 µM (active) and the IC50 (HEK293 [4]) was 1.84 µM (active). For the same compound, the EC50 (Streptokinase A) was > 150 µM (inconclusive), the IC50 (HEK293 [5]) was > 20 µM (inactive) and the EC50 [6] was 2.22 µM (active). For the same compound, the IC50 (HEK293 [7]) was 3.21 µM (active), the IC50 (HEK293 [8]) was > 20 µM (inactive) and the EC50 (Streptococcus) was 17.7 µM (active). The AC50 [9] was 6.84 µM (active) and the IC50 [10] was > 69.5 µM (inactive).

With O=C(c1cccc(F)c1)N1CCC2(CCN(Cc3nccs3)CC2)CC1 the AC50 (Cytochrome P450 3A4) was “inconclusive”.

In the case of Cc1coc2c1C(=O)C(=O)c1c-2ccc2c(C)cccc12 [TANSHINONE I], the IC50 [11] is reported as 3.91 µM (active), the EC50 [3] is reported as 4.65 µM (active) and the IC50 [12] is reported as 2.8 µM (active). For the same compound, the EC50 (Streptokinase A) was > 150 µM (not active) and the EC50 (Streptococcus) was 7.63 µM (active).

In the case of CCOC(=O)c1ccc(NC(=O)C(=O)NCC2CCCO2)cc1 (centres undefined), the AC50 (Cytochrome P450 2C19; read-out: AC50) is reported as 31.6 µM (inconclusive), the AC50 (Cytochrome P450 2C9) is reported as 25.1 µM (inconclusive) and the AC50 (Cytochrome P450 2D6) is reported as “inconclusive”.

In the case of c1ccc2cc(Sc3ncnc4c3oc3ccccc34)ccc2c1, the AC50 (Cytochrome P450 3A4) is reported as “inconclusive”.
